≈ marks a conversion by molar mass, not a printed value. Calls of active or inactive are those of the source. No cut-off for these calls is given here.
Tests used:
[1] = system: Pseudomonas aeruginosa; experiment: Antibacterial activity against Pseudomonas aeruginosa after 24 hrs by twofold serial dilution method; type: functional
[2] = system: Candida; experiment: Antifungal activity against Candida 6 after 72 to 96 hrs by twofold serial dilution method; type: functional
[3] = system: Streptococcus; experiment: Antibacterial activity against beta-Hemolytic streptococcus after 24 hrs by twofold serial dilution method; type: functional
[4] = system: Candida albicans; experiment: Antifungal activity against Candida albicans after 72 to 96 hrs by twofold serial dilution method; type: functional
[5] = system: Candida; experiment: Antifungal activity against Candida 51 after 72 to 96 hrs by twofold serial dilution method; type: functional
[6] = system: Escherichia coli; experiment: Antibacterial activity against Escherichia coli after 24 hrs by twofold serial dilution method; type: functional
[7] = system: Aspergillus flavus; experiment: Antifungal activity against Aspergillus flavus after 72 to 96 hrs by twofold serial dilution method; type: functional
[8] = system: Staphylococcus aureus; experiment: Antibacterial activity against Staphylococcus aureus after 24 hrs by twofold serial dilution method; type: functional
[9] = system: Vibrio cholerae; experiment: Antibacterial activity against Vibrio cholerae after 24 hrs by twofold serial dilution method; type: functional
[10] = system: Candida; experiment: Antifungal activity against Candida 51 at 200 ug/ml after 72 to 96 hrs by twofold serial dilution method; type: functional, organism-based
[11] = system: Escherichia coli; experiment: Antibacterial activity against Escherichia coli at 200 ug/ml after 24 hrs by twofold serial dilution method; type: functional, organism-based
[12] = system: Aspergillus flavus; experiment: Antifungal activity against Aspergillus flavus at 200 ug/ml after 72 to 96 hrs by twofold serial dilution method; type: functional, organism-based
[13] = system: Staphylococcus aureus; experiment: Antibacterial activity against Staphylococcus aureus at 200 ug/ml after 24 hrs by twofold serial dilution method; type: functional, organism-based

SMILES | MIC [1] [µg/mL] | MIC [2] [µg/mL] | MIC [3] [µg/mL] | MIC [4] [µg/mL] | MIC [5] [µg/mL] | MIC [6] [µg/mL] | MIC [7] [µg/mL] | MIC [8] [µg/mL] | MIC [9] [µg/mL] | MIC [10] | MIC [11] | MIC [12] | MIC [13]
CC1/C(=N/N2C(=O)CNC2=S)CC(c2ccc(Cl)cc2)NC1c1ccc(Cl)cc1 (configuration not stated) | 50 (≈ 112 µM) | 50 (≈ 112 µM) | 50 (≈ 112 µM) | 50 (≈ 112 µM) | 12.5 (≈ 27.9 µM) | 50 (≈ 112 µM) | 12.5 (≈ 27.9 µM) | 6.25 (≈ 14 µM) | 50 (≈ 112 µM) | – | – | – | –
COc1ccc(C2CC(=NN3C(=O)CNC3=S)CC(c3ccc(OC)cc3)N2)cc1 (configuration not stated) | 100 (≈ 236 µM) | 6.25 (≈ 14.7 µM) | 100 (≈ 236 µM) | 12.5 (≈ 29.4 µM) | – | 50 (≈ 118 µM) | 12.5 (≈ 29.4 µM) | 50 (≈ 118 µM) | 100 (≈ 236 µM) | inactive | – | – | –
CC1(C)/C(=N/N2C(=O)CNC2=S)CC(c2ccc(Cl)cc2)NC1c1ccc(Cl)cc1 (configuration not stated) | 25 (≈ 54.2 µM) | 50 (≈ 108 µM) | 12.5 (≈ 27.1 µM) | 50 (≈ 108 µM) | 50 (≈ 108 µM) | 50 (≈ 108 µM) | 25 (≈ 54.2 µM) | 25 (≈ 54.2 µM) | 12.5 (≈ 27.1 µM) | – | – | – | –
Cc1ccc(C2C/C(=N\N3C(=O)CNC3=S)C(C)(C)C(c3ccc(C)cc3)N2)cc1 (configuration not stated) | 100 (≈ 238 µM) | 6.25 (≈ 14.9 µM) | 25 (≈ 59.4 µM) | 25 (≈ 59.4 µM) | 12.5 (≈ 29.7 µM) | 50 (≈ 119 µM) | 25 (≈ 59.4 µM) | 25 (≈ 59.4 µM) | 25 (≈ 59.4 µM) | – | – | – | –
OC(Cn1cncn1)(Cn1cncn1)c1ccc(F)cc1F [FLUCONAZOLE] | – | 25 (≈ 81.6 µM) | – | 50 (≈ 163 µM) | 25 (≈ 81.6 µM) | – | 50 (≈ 163 µM) | – | – | – | – | – | –
COc1ccc(C2C/C(=N\N3C(=O)CNC3=S)C(C)C(c3ccc(OC)cc3)N2)cc1 (configuration not stated) | 25 (≈ 57 µM) | 12.5 (≈ 28.5 µM) | 25 (≈ 57 µM) | 50 (≈ 114 µM) | 12.5 (≈ 28.5 µM) | 100 (≈ 228 µM) | 12.5 (≈ 28.5 µM) | 50 (≈ 114 µM) | 25 (≈ 57 µM) | – | – | – | –
Cc1ccc(C2C/C(=N\N3C(=O)CNC3=S)C(C)C(c3ccc(C)cc3)N2)cc1 (configuration not stated) | 50 (≈ 123 µM) | 6.25 (≈ 15.4 µM) | 50 (≈ 123 µM) | 50 (≈ 123 µM) | 12.5 (≈ 30.7 µM) | 50 (≈ 123 µM) | 12.5 (≈ 30.7 µM) | 25 (≈ 61.5 µM) | 50 (≈ 123 µM) | – | – | – | –
O=C1CNC(=S)N1N=C1CC(c2ccc(Cl)cc2)NC(c2ccc(Cl)cc2)C1 (configuration not stated) | 6.25 (≈ 14.4 µM) | 12.5 (≈ 28.8 µM) | 6.25 (≈ 14.4 µM) | 50 (≈ 115 µM) | 25 (≈ 57.7 µM) | 12.5 (≈ 28.8 µM) | 50 (≈ 115 µM) | 50 (≈ 115 µM) | 6.25 (≈ 14.4 µM) | – | – | – | –
COc1ccc(C2C/C(=N\N3C(=O)CNC3=S)C(C)(C)C(c3ccc(OC)cc3)N2)cc1 (configuration not stated) | 50 (≈ 110 µM) | 25 (≈ 55.2 µM) | 50 (≈ 110 µM) | 12.5 (≈ 27.6 µM) | 6.25 (≈ 13.8 µM) | – | 6.25 (≈ 13.8 µM) | 200 (≈ 442 µM) | 50 (≈ 110 µM) | – | inactive | – | –
CC1(C)/C(=N/N2C(=O)CNC2=S)CC(c2ccc(F)cc2)NC1c1ccc(F)cc1 (configuration not stated) | 6.25 (≈ 14.6 µM) | 50 (≈ 117 µM) | 6.25 (≈ 14.6 µM) | 50 (≈ 117 µM) | 50 (≈ 117 µM) | 6.25 (≈ 14.6 µM) | 25 (≈ 58.3 µM) | 12.5 (≈ 29.2 µM) | 6.25 (≈ 14.6 µM) | – | – | – | –
CC1/C(=N/N2C(=O)CNC2=S)CC(c2ccccc2)NC1c1ccccc1 (configuration not stated) | 50 (≈ 132 µM) | 50 (≈ 132 µM) | 100 (≈ 264 µM) | 50 (≈ 132 µM) | 50 (≈ 132 µM) | 50 (≈ 132 µM) | 50 (≈ 132 µM) | 200 (≈ 528 µM) | 100 (≈ 264 µM) | – | – | – | –
O=C(O)c1cn(C2CC2)c2cc(N3CCNCC3)c(F)cc2c1=O [CIPROFLOXACIN] | – | – | 50 (≈ 151 µM) | – | – | 25 (≈ 75.4 µM) | – | – | 50 (≈ 151 µM) | – | – | – | –
O=C1CNC(=S)N1N=C1CC(c2ccccc2)NC(c2ccccc2)C1 (configuration not stated) | 50 (≈ 137 µM) | 50 (≈ 137 µM) | 50 (≈ 137 µM) | 12.5 (≈ 34.3 µM) | 100 (≈ 274 µM) | 50 (≈ 137 µM) | 12.5 (≈ 34.3 µM) | 100 (≈ 274 µM) | 50 (≈ 137 µM) | – | – | – | –
CC1/C(=N/N2C(=O)CNC2=S)CC(c2ccc(F)cc2)NC1c1ccc(F)cc1 (configuration not stated) | 6.25 (≈ 15.1 µM) | 12.5 (≈ 30.2 µM) | 12.5 (≈ 30.2 µM) | 6.25 (≈ 15.1 µM) | 6.25 (≈ 15.1 µM) | 12.5 (≈ 30.2 µM) | 6.25 (≈ 15.1 µM) | 6.25 (≈ 15.1 µM) | 12.5 (≈ 30.2 µM) | – | – | – | –
CC1(C)/C(=N/N2C(=O)CNC2=S)CC(c2ccccc2)NC1c1ccccc1 (configuration not stated) | 100 (≈ 255 µM) | 100 (≈ 255 µM) | 25 (≈ 63.7 µM) | 50 (≈ 127 µM) | 50 (≈ 127 µM) | 100 (≈ 255 µM) | – | 100 (≈ 255 µM) | 25 (≈ 63.7 µM) | – | – | inactive | –
O=C1CNC(=S)N1N=C1CC(c2ccc(F)cc2)NC(c2ccc(F)cc2)C1 (configuration not stated) | 6.25 (≈ 15.6 µM) | 50 (≈ 125 µM) | 6.25 (≈ 15.6 µM) | 50 (≈ 125 µM) | 50 (≈ 125 µM) | 12.5 (≈ 31.2 µM) | 12.5 (≈ 31.2 µM) | 50 (≈ 125 µM) | 6.25 (≈ 15.6 µM) | – | – | – | –
Cc1ccc(C2CC(=NN3C(=O)CNC3=S)CC(c3ccc(C)cc3)N2)cc1 (configuration not stated) | 25 (≈ 63.7 µM) | 6.25 (≈ 15.9 µM) | 100 (≈ 255 µM) | 12.5 (≈ 31.8 µM) | 6.25 (≈ 15.9 µM) | 200 (≈ 510 µM) | 6.25 (≈ 15.9 µM) | – | 100 (≈ 255 µM) | – | – | – | inactive
